Source: PMC7891380 (Chemical Biology & Drug Design, 2020)

Tested on: multidrug‐resistant A. baumannii
Test: Peptide MIC, standard microbroth dilution assay
Type: cell-based, Acinetobacter baumannii
Conditions: result in words, based on MIC

With “LKIPGFVKDTLKKVAKGIFSAVAGAMTPS [Hymenochirin‐2B]” the “potency against multidrug‐resistant A. baumannii” value was “high potency”.
